Data on 4 molecules can be found in PubChem BioAssay AID1963432 (Molecular Pharmacology Branch, DTP, NCI, 2024).

Molecules are shown by their SMILES. pIC50: −log10 of the molar value. Values joined by “and” are separate entries in the source; they are usually repeats but may differ in a detail not shown here. Identical values can stand only once.

The subject of this assay is SYO-1 complex spheroid growth, percent test/control. Kind of assay: Anticancer human tumor SYO-1 cell line growth inhibition [Asc].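 On all read-outs here: compound exposure lasted 7 days after spheroids grew 3 days.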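 On viability, T/C: 100% = DMSO vehicle control viability.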 To be noted: for viability, T/C: stronger effect = lower value. In short, it runs like this: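 Complex spheroids combining tumor cells with HUVEC endothelial cells and human MSCs, at 37 degrees C, 5% CO2; agents tested alone or combined, half-log dilutions from at or near clinical Cmax, or 10 microM if Cmax unknown.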

Broadly, the pIC50 is −log10 of the IC50, conventionally taken in molar units. Broadly, the viability, T/C is the result in the treated group divided by that in the control group, in per cent. Take `COc1c(OCCCN2CCOCC2)ccc2c3n(c(=NC(=O)c4cnc(N)nc4)nc12)CCN3` + CNC(C)C(=O)NC1CN(S(=O)(=O)c2cccc(S(=O)(=O)N3CCC4CCC(C(=O)NC(c5ccccc5)c5ccccc5)N4C(=O)C(NC(=O)C(C)NC)C3)c2)CCC2CCC(C(=O)NC(c3ccccc3)c3ccccc3)N2C1=O: the pIC50 is, setting by setting: (curve of first compound, second compound 0.01 µM) below 6.00; (curve of first compound, second compound 0.0316 µM) below 6.00; (curve of first compound, second compound 0.1 µM) below 6.00; (curve of first compound, second compound 0.316 µM) below 6.00; (curve of first compound, second compound 1 µM) below 6.00. Moreover, the viability, T/C reads like this: (second compound 0.01 µM, first compound 0.00316 µM) 106%; (second compound 0.01 µM, first compound 0.01 µM) 109%; (second compound 0.01 µM, first compound 0.0316 µM) 116%; (second compound 0.01 µM, first compound 0.1 µM) 106%; (second compound 0.01 µM, first compound 0.316 µM) 96%; (second compound 0.01 µM, first compound 1 µM) 68.3%. Further, the viability, T/C reads like this: (second compound 0.0316 µM, first compound 0.00316 µM) 113%; (second compound 0.0316 µM, first compound 0.01 µM) 126%; (second compound 0.0316 µM, first compound 0.0316 µM) 118%; (second compound 0.0316 µM, first compound 0.1 µM) 110%; (second compound 0.0316 µM, first compound 0.316 µM) 98.2%; (second compound 0.0316 µM, first compound 1 µM) 72.9%. Besides, the viability, T/C reads like this: (second compound 0.1 µM, first compound 0.00316 µM) 107%; (second compound 0.1 µM, first compound 0.01 µM) 119%; (second compound 0.1 µM, first compound 0.0316 µM) 118%; (second compound 0.1 µM, first compound 0.1 µM) 107%; (second compound 0.1 µM, first compound 0.316 µM) 102%; (second compound 0.1 µM, first compound 1 µM) 68.7%. For the same molecule, the viability, T/C is 111% (second compound 0.316 µM, first compound 0.00316 µM); 122% (second compound 0.316 µM, first compound 0.01 µM); 116% (second compound 0.316 µM, first compound 0.0316 µM); 105% (second compound 0.316 µM, first compound 0.1 µM); 96.1% (second compound 0.316 µM, first compound 0.316 µM); 69.2% (second compound 0.316 µM, first compound 1 µM). Further, the viability, T/C is 114% (second compound 1 µM, first compound 0.00316 µM); 124% (second compound 1 µM, first compound 0.01 µM); 117% (second compound 1 µM, first compound 0.0316 µM); 113% (second compound 1 µM, first compound 0.1 µM); 95.1% (second compound 1 µM, first compound 0.316 µM); 73.3% (second compound 1 µM, first compound 1 µM).
As to `NC1CCC(NC2CC2c2ccccc2)CC1` (stereo unspecified), the viability, T/C is, setting by setting: (compound 0.000316 µM) 108% and 106% and 112%; (compound 0.001 µM) 102% and 97% and 97.1%; (compound 0.00316 µM) 90.9% and 95.4% and 93.3%; (compound 0.01 µM) 94.7% and 89.3% and 92.9%; (compound 0.0316 µM) 91.9% and 96.6% and 88.2%; (compound 0.1 µM) 90.8% and 84.5% and 86.5%. Moreover, the negative-log IC50 (pIC50) (curve of compound) is below 7.00.
In the case of `O=C(c1ccc(F)c(F)c1Nc1ccc(I)cc1F)N1CC(O)([C@@H]2CCCCN2)C1` + CCN1C(C(=O)NC23CCC(C(=O)O)(CC2)CC3)C(c2cccc(Cl)c2F)C2(C(=O)Nc3cc(Cl)ccc32)C12CCCCC2, the negative logarithm of the IC50 (pIC50) is, setting by setting: (curve of first compound, second compound 0.00949 µM) below 6.00; (curve of first compound, second compound 0.03 µM) below 6.00; (curve of first compound, second compound 0.0949 µM) 6.08; (curve of first compound, second compound 0.3 µM) above 8.50; (curve of first compound, second compound 0.949 µM) above 8.50; (curve of first compound, second compound 3 µM) above 8.50. The viability, T/C by setting is: (second compound 0.00949 µM, first compound 0.00316 µM) 115%; (second compound 0.00949 µM, first compound 0.01 µM) 103%; (second compound 0.00949 µM, first compound 0.0316 µM) 99.9%; (second compound 0.00949 µM, first compound 0.1 µM) 111%; (second compound 0.00949 µM, first compound 0.316 µM) 107%; (second compound 0.00949 µM, first compound 1 µM) 119%. In addition, the viability, T/C is, setting by setting: (second compound 0.03 µM, first compound 0.00316 µM) 96.5%; (second compound 0.03 µM, first compound 0.01 µM) 99.5%; (second compound 0.03 µM, first compound 0.0316 µM) 102%; (second compound 0.03 µM, first compound 0.1 µM) 116%; (second compound 0.03 µM, first compound 0.316 µM) 116%; (second compound 0.03 µM, first compound 1 µM) 103%. Moreover, the viability, T/C (second compound 0.0949 µM, first compound 0.00316 µM) was 83.5%; the viability, T/C (second compound 0.0949 µM, first compound 0.01 µM) was 93.1%; the viability, T/C (second compound 0.0949 µM, first compound 0.0316 µM) was 94.5%; the viability, T/C (second compound 0.0949 µM, first compound 0.1 µM) was 95%; the viability, T/C (second compound 0.0949 µM, first compound 0.316 µM) is 93.5%; the viability, T/C (second compound 0.0949 µM, first compound 1 µM) is 41.4%. Besides, the viability, T/C is, setting by setting: (second compound 0.3 µM, first compound 0.00316 µM) 30.4%; (second compound 0.3 µM, first compound 0.01 µM) 23.9%; (second compound 0.3 µM, first compound 0.0316 µM) 24.8%; (second compound 0.3 µM, first compound 0.1 µM) 21.6%; (second compound 0.3 µM, first compound 0.316 µM) 10.2%; (second compound 0.3 µM, first compound 1 µM) 0.94%. For the same molecule, the viability, T/C by setting is: (second compound 0.949 µM, first compound 0.00316 µM) 5.46%; (second compound 0.949 µM, first compound 0.01 µM) 5.3%; (second compound 0.949 µM, first compound 0.0316 µM) 3.35%; (second compound 0.949 µM, first compound 0.1 µM) 1.43%; (second compound 0.949 µM, first compound 0.316 µM) 0.7%; (second compound 0.949 µM, first compound 1 µM) 0.15%. Besides, the viability, T/C is, setting by setting: (second compound 3 µM, first compound 0.00316 µM) 1.44%; (second compound 3 µM, first compound 0.01 µM) 2.44%; (second compound 3 µM, first compound 0.0316 µM) 1.3%; (second compound 3 µM, first compound 0.1 µM) 0.81%; (second compound 3 µM, first compound 0.316 µM) 0.22%; (second compound 3 µM, first compound 1 µM) 0.42%.
For orientation: IC50 means the concentration that gives 50% inhibition. On to `CCN1C(C(=O)NC23CCC(C(=O)O)(CC2)CC3)C(c2cccc(Cl)c2F)C2(C(=O)Nc3cc(Cl)ccc32)C12CCCCC2` (stereo unspecified), for which the viability, T/C runs as follows: (compound 0.00949 µM) 103% [middle of 9 runs]; (compound 0.03 µM) 99.3% [middle of 9 runs]; (compound 0.3 µM) 25.9% [middle of 9 runs]; (compound 0.949 µM) 3.45% [middle of 9 runs]; (compound 3 µM) 1.23% [middle of 9 runs]. Also, for the setting “compound alone, run of 11/07/2022”, the half-maximal inhibitory concentration (IC50) is 189 nM [middle of 7 runs]. Also, for the setting “curve of compound”, the pIC50 was 6.85 and 6.75.
